Measured values: ChEMBL document CHEMBL5291721, “A preclinical secondary pharmacology resource illuminates target-adverse drug reaction associations of marketed drugs” (Nat Commun, 2023)

How the values were obtained:
Adenosine receptor A1 = molecular target: T1, Adenosine receptor A1 (Homo sapiens, UniProt P30542)
T1 sequence (P30542 whole entry): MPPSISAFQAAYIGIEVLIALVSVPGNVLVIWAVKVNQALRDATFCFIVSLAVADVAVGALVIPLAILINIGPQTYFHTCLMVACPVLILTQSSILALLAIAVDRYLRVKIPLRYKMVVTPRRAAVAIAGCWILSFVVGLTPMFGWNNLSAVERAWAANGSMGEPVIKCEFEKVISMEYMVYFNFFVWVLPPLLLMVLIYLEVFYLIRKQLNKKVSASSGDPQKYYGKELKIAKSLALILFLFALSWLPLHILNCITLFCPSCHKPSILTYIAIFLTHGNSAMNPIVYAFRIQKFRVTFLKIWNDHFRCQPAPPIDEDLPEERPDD

Histamine H2 receptor = Histamine H2 receptor (Homo sapiens, UniProt P25021); format: functional, cell-based
[1] = molecular target: Voltage-gated inwardly rectifying potassium channel KCNH2 (Homo sapiens, UniProt Q12809); format: functional
[2] = molecular target: T2, Gamma-aminobutyric acid receptor subunit alpha-1 (Rattus norvegicus, UniProt P62813)
[3] = molecular target: Beta-2 adrenergic receptor (Homo sapiens, UniProt P07550)
[4] = molecular target: 3',5'-cyclic-AMP phosphodiesterase 4D (Homo sapiens, UniProt Q08499); format: functional
[5] = molecular target: Beta-1 adrenergic receptor (Homo sapiens, UniProt P08588); format: functional
[6] = molecular target: T2, Gamma-aminobutyric acid receptor subunit alpha-1; format: functional
[7] = molecular target: T3, 5-hydroxytryptamine receptor 3A (Homo sapiens, UniProt P46098); format: functional
T3 sequence (P46098 whole entry): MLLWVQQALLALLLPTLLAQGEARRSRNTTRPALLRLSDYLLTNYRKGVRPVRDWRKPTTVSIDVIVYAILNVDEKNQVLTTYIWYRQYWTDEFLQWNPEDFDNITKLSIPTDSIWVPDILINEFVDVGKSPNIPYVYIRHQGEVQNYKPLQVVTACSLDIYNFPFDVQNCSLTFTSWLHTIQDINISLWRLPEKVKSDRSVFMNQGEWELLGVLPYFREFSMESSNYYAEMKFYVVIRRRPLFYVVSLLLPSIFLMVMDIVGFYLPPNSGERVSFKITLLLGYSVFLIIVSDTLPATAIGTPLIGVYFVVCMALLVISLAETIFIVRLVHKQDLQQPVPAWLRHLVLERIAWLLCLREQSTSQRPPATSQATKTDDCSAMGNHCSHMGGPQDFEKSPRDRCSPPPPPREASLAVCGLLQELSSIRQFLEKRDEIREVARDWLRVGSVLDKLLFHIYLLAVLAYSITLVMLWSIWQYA

[8] = molecular target: T4, Cholecystokinin receptor type A (Homo sapiens, UniProt P32238)
T4 sequence (P32238 whole entry): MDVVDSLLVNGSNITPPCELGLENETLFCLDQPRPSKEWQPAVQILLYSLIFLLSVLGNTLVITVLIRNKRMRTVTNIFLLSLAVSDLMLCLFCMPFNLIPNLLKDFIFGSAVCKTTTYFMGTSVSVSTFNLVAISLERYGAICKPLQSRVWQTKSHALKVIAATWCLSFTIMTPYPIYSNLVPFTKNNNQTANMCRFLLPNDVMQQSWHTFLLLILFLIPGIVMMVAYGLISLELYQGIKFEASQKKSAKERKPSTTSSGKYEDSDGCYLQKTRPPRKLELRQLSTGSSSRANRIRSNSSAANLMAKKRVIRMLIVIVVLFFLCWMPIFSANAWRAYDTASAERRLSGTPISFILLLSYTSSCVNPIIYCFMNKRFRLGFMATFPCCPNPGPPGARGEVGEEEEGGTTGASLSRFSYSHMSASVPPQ

[9] = molecular target: T5, Amine oxidase [flavin-containing] A (Homo sapiens, UniProt P21397); format: functional
T5 sequence (P21397 whole entry): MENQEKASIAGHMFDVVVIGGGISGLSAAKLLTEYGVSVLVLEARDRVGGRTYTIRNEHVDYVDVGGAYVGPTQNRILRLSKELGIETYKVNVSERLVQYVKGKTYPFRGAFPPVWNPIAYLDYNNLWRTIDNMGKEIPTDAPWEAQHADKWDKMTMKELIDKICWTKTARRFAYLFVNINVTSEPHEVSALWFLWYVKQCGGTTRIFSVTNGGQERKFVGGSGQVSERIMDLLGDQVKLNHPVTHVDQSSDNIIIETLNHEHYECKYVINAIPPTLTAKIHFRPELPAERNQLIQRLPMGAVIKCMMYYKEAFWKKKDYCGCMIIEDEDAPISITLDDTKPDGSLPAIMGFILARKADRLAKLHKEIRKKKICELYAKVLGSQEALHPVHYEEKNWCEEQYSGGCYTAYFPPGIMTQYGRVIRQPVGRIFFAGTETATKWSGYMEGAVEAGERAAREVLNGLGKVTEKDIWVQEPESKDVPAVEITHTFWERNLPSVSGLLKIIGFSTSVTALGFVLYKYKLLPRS

[10] = molecular target: Sodium-dependent dopamine transporter (Homo sapiens, UniProt Q01959)
Vasopressin V1a receptor = Vasopressin V1a receptor (Homo sapiens, UniProt P37288)
Histamine H3 receptor = Histamine H3 receptor (Homo sapiens, UniProt Q9Y5N1)
Note: assay procedure not described here.

Sequence of Vasopressin V1a receptor (P37288 whole entry): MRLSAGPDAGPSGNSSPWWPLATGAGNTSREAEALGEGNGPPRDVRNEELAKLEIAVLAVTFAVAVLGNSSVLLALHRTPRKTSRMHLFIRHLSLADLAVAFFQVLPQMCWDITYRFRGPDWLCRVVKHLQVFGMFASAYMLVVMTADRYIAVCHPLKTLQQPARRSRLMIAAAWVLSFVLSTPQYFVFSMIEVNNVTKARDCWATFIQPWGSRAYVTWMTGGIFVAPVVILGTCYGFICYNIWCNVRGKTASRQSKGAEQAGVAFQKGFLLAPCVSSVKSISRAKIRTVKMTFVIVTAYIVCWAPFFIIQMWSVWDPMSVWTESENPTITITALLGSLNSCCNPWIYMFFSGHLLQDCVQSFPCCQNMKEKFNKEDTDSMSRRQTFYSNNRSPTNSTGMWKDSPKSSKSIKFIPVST
T2 sequence (P62813 whole entry): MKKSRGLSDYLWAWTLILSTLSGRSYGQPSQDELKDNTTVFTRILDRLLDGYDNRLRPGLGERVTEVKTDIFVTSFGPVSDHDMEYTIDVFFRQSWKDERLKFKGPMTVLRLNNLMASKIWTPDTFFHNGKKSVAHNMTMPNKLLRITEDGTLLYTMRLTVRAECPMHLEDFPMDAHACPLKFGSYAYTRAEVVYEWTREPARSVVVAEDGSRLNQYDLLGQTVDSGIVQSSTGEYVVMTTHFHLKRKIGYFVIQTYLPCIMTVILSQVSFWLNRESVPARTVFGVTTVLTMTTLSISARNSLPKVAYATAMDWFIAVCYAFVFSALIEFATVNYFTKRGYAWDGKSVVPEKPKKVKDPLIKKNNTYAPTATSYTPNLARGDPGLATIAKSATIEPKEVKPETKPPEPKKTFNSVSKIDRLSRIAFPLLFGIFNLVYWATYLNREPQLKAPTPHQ
Sequence of 3',5'-cyclic-AMP phosphodiesterase 4D (Q08499 whole entry): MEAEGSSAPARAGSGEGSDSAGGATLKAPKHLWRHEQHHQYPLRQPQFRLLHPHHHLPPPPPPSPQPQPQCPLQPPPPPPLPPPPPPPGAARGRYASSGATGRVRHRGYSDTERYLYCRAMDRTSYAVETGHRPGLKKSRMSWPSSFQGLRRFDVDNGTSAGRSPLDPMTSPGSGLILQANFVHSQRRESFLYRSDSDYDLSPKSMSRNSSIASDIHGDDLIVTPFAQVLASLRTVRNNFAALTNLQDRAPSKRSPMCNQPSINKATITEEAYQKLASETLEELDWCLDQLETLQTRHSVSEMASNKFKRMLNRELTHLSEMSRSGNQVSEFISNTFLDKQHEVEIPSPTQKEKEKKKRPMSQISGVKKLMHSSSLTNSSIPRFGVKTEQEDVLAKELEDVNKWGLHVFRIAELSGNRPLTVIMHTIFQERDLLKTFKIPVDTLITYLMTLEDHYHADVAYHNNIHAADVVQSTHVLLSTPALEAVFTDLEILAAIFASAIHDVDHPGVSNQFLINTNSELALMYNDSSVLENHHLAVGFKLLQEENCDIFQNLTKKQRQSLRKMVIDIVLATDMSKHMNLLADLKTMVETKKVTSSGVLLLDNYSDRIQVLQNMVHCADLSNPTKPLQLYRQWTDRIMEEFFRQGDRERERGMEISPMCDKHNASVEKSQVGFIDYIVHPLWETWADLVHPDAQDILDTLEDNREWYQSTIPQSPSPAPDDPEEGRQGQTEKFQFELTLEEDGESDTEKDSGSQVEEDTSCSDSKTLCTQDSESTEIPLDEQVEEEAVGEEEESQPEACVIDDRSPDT
Sequence of Beta-1 adrenergic receptor (P08588 whole entry): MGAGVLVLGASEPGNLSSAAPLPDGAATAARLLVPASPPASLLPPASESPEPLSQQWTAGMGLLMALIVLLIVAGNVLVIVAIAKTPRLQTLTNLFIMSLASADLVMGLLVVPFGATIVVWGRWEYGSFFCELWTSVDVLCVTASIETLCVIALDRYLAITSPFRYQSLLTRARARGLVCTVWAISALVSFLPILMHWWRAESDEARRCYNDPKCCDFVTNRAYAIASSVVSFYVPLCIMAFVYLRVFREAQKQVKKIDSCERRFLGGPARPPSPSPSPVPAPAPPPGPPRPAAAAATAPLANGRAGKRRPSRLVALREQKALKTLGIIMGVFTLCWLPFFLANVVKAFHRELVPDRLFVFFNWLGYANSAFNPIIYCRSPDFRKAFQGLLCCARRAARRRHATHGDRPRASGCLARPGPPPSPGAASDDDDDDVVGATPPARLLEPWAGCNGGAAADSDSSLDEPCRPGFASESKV
Sequence of Sodium-dependent dopamine transporter (Q01959 whole entry): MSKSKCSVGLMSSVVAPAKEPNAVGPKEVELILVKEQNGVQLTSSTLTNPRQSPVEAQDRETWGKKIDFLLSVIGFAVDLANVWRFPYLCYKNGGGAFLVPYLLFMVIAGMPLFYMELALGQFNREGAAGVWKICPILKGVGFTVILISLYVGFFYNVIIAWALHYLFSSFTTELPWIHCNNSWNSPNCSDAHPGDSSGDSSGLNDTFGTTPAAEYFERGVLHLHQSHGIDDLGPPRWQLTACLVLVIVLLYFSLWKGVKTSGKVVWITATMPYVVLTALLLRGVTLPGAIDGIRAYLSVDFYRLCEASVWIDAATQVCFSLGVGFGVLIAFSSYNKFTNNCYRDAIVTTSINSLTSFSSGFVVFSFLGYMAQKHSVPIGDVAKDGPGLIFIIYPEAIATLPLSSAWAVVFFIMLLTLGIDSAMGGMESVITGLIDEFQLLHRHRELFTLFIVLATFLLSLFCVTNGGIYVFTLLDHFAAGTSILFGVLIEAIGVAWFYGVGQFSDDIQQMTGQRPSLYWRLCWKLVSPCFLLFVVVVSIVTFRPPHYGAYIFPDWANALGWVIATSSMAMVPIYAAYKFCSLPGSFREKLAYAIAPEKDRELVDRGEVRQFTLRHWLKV
Sequence of Histamine H3 receptor (Q9Y5N1 whole entry): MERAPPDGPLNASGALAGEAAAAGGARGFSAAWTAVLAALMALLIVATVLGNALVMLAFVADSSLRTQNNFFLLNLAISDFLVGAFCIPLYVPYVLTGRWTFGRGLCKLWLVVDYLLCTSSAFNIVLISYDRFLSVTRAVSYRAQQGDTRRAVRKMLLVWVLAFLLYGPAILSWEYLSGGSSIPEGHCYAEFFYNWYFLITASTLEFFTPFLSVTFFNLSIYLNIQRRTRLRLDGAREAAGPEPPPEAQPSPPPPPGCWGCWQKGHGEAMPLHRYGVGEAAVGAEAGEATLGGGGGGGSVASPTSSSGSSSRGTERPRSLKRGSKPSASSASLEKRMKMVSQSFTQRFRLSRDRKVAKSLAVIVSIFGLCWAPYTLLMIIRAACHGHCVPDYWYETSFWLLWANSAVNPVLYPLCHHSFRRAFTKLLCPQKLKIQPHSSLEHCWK
Sequence of Voltage-gated inwardly rectifying potassium channel KCNH2 (Q12809 whole entry): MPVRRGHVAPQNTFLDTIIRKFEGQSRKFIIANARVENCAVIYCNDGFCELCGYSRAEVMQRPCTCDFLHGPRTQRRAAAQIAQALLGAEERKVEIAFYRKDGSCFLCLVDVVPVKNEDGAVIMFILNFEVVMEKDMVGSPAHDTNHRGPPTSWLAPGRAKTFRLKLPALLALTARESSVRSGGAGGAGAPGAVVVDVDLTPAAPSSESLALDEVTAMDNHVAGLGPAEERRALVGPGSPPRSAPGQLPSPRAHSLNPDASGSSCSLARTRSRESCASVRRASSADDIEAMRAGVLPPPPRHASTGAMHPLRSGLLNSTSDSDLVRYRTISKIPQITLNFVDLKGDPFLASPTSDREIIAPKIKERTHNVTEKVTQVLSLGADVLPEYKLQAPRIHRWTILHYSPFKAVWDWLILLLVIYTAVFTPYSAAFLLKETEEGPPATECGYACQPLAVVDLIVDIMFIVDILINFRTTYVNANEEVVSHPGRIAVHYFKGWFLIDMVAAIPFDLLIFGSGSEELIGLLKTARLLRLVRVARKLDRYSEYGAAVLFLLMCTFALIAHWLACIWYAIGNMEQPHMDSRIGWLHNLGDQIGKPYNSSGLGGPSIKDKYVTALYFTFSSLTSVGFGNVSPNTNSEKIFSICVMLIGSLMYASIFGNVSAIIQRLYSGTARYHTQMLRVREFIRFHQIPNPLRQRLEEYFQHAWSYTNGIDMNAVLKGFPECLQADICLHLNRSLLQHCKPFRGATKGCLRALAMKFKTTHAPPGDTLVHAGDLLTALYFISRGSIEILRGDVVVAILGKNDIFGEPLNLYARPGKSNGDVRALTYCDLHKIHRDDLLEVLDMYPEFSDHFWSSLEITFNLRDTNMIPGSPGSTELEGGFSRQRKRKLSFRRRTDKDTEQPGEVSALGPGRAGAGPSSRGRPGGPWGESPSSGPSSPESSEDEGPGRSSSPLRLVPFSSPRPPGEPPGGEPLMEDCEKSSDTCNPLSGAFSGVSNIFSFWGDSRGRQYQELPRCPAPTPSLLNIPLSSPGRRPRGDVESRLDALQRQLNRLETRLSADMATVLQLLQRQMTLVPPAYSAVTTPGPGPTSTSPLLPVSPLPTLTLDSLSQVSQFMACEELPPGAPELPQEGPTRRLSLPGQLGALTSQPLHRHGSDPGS
Sequence of Histamine H2 receptor (P25021 whole entry): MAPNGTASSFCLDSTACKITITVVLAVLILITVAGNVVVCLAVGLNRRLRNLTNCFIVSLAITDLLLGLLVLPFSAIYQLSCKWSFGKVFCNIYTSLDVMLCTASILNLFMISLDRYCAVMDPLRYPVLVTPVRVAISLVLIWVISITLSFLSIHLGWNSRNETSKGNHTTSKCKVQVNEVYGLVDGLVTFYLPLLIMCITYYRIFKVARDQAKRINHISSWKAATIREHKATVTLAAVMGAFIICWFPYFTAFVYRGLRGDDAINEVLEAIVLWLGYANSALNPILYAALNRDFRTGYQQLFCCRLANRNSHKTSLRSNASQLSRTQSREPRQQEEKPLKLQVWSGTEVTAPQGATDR

| SMILES | AC50 (Adenosine receptor A1) [µM] | AC50 (Histamine H2 receptor) [µM] | AC50 [1] [µM] | AC50 [2] [µM] | AC50 [3] [µM] | AC50 [4] [µM] | AC50 [5] [µM] | AC50 [6] [µM] | AC50 [7] [µM] | AC50 [8] [µM] | AC50 [9] [µM] | AC50 [10] [µM] | AC50 (Vasopressin V1a receptor) [µM] | AC50 (Histamine H3 receptor) [µM] |
| --- | --- | --- | --- | --- | --- | --- | --- | --- | --- | --- | --- | --- | --- | --- |
| CCC1(CCC(C)C)C(=O)NC(=O)NC1=O [AMOBARBITAL] | > 10 | > 10 | > 30 | > 10 | > 10 | > 30 | > 10 | > 10 | > 30 | > 10 | > 10 | > 10 | – | – |
| COc1ccc(C2C(=O)c3ccccc3C2=O)cc1 [ANISINDIONE] | > 10 | > 30 | > 30 | > 10 | > 10 | > 30 | > 10 | > 10 | > 30 | > 10 | 91 | > 10 | – | – |
| CO/N=C(\C(=O)N[C@@H]1C(=O)N2C(C(=O)O)=CCS[C@H]12)c1csc(N)n1 [CEFTIZOXIME] | > 30 | > 30 | > 30 | – | – | > 30 | > 30 | – | – | > 30 | > 30 | > 30 | > 30 | > 30 |
| CO/N=C(\C(=O)N[C@@H]1C(=O)N2C(C(=O)O)=C(CSc3nc(=O)c(=O)[nH]n3C)CS[C@H]12)c1csc(N)n1 [CEFTRIAXONE] | > 30 | > 30 | > 30 | – | – | > 30 | > 30 | > 30 | > 30 | > 30 | > 30 | > 30 | > 30 | > 30 |
| CC(C)NC[C@H](O)COc1ccc(CC(N)=O)cc1 [ESATENOLOL] | > 30 | > 10 | – | – | – | > 10 | – | – | > 10 | > 30 | > 10 | – | > 10 | – |
| COc1ccc2cc(CCC(C)=O)ccc2c1 [NABUMETONE] | > 10 | > 30 | > 30 | > 10 | > 10 | > 30 | > 10 | > 10 | > 30 | > 10 | – | 7.8 | – | – |
| O=C(NCCO[N+](=O)[O-])c1cccnc1 [NICORANDIL] | > 30 | > 30 | > 30 | > 30 | – | > 30 | > 30 | > 30 | > 30 | > 30 | > 30 | > 30 | > 30 | > 30 |
| CO[C@H]1C[C@H](O[C@H]2CC[C@@]3(C)[C@H](CC[C@@H]4[C@@H]3CC[C@]3(C)[C@@H](C5=CC(=O)OC5)[C@@H](OC(C)=O)C[C@]43O)C2)O[C@@H](C)[C@@H]1O [OLEANDRIN] | – | > 30 | > 30 | > 30 | – | > 30 | – | > 30 | > 30 | – | > 30 | – | – | – |
| O=c1[nH]c2ccccc2n1CCCN1CCN(C(c2ccccc2)c2ccccc2)CC1 [OXATOMIDE] | > 30 | > 30 | 0.026 | > 30 | – | > 30 | > 30 | > 30 | > 30 | > 30 | > 30 | 0.9 | 22 | > 30 |
| COc1cc2[nH]c(C)c(CCN3CCN(c4ccccc4)CC3)c2cc1OC [OXYPERTINE] | > 30 | > 30 | – | > 30 | – | 9.8 | 26 | > 30 | > 30 | > 30 | > 30 | 2.3 | > 30 | > 30 |
| NC(=O)NC(=O)Cc1ccccc1 [PHENACEMIDE] | > 10 | > 10 | > 30 | > 10 | > 10 | > 30 | > 10 | > 10 | > 30 | > 10 | > 10 | > 10 | – | – |
| c1ccc(C2(N3CCCCC3)CCCCC2)cc1 [PHENCYCLIDINE] | > 30 | > 30 | 12 | – | – | > 30 | > 30 | > 30 | > 30 | > 30 | > 30 | 2.6 | > 30 | > 30 |
| COc1cc(C(=O)OCc2cccc(COC(=O)c3cc(OC)c(OC)c(OC)c3)n2)cc(OC)c1OC [PIROZADIL] | > 30 | > 30 | > 30 | > 30 | – | > 30 | > 30 | > 30 | > 30 | > 30 | > 30 | > 30 | > 30 | > 30 |
| O=c1c(O)c(-c2ccc(O)c(O)c2)oc2cc(O)cc(O)c12 [QUERCETIN] | – | > 30 | > 30 | – | – | > 10 | – | – | > 30 | > 30 | 5.6 | – | > 30 | > 10 |
| CCN(CC)CCCC(C)Nc1c2ccc(Cl)cc2nc2ccc(OC)cc12 (stereo unspecified) [QUINACRINE] | – | – | 0.7 | – | – | – | – | – | – | – | – | – | – | – |
| C=CCN1CCc2nc(N)sc2CC1 [TALIPEXOLE] | > 30 | > 30 | > 30 | > 30 | – | > 30 | > 30 | > 30 | > 30 | > 30 | > 30 | > 30 | > 30 | 3.3 |
| CCOC(=O)[C@@H](N)Cc1ccc(-c2cc(O[C@H](c3ccc(Cl)cc3-n3ccc(C)n3)C(F)(F)F)nc(N)n2)cc1 [TELOTRISTAT ETHYL] | > 30 | > 30 | 26 | > 30 | – | 5 | > 30 | > 30 | 24 | 10 | > 30 | 18 | > 30 | > 30 |
| CC(C)(C)NCC(O)c1ccccc1Cl (stereo unspecified) [TULOBUTEROL] | > 30 | > 30 | > 30 | > 30 | – | > 30 | – | > 30 | > 30 | > 30 | > 30 | > 30 | > 30 | > 30 |
| CCCCCCCC(=O)CC[C@@H]1[C@@H](C/C=C\CCCC(=O)OC(C)C)[C@@H](O)C[C@H]1O [UNOPROSTONE ISOPROPYL] | – | – | – | – | – | 9.6 | – | – | – | – | > 30 | 7.2 | – | – |
